In PubChem BioAssay AID328 (DTP/NCI, 2004):
Values joined by “and” are separate entries in the source; they are usually repeats but may differ in a detail not shown here. Identical values can stand only once. Inconclusive results and toxic doses are left out.

System: BDF1 mice, P388 leukemia ip, median survival T/C
Experiment: NCI In Vivo Anticancer Drug Screen. Data for tumor model P388 Leukemia (intraperitoneal) in B6D2F1 (BDF1) mice
Conditions: endpoint: median survival time, higher = longer survival
Summary of the method: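 T/C = treated-group survival ÷ vehicle-control survival; tumour transplanted into mice before dosing.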

[1] = dose: 100.0 mg/kg/injection, schedule: Q04DX003 (ip), vehicle: Klucel (hydroxypropylcellulose) (HPC)
[2] = dose: 200.0 mg/kg/injection, schedule: Q04DX003 (ip), vehicle: Klucel (hydroxypropylcellulose) (HPC)
[3] = dose: 50.0 mg/kg/injection, schedule: Q01DX009 (ip), vehicle: saline with Tween-80
[4] = dose: 100.0 mg/kg/injection, schedule: Q04DX003 (ip), vehicle: saline with Tween-80

Q: Which T/C (dose: 12.5 mg/kg/injection, schedule: Q04DX003 (ip), vehicle: saline) does the source give for `CCCCCCC(C)NN` (configuration not stated) here?
A: The T/C was 98 % of control.

Q: What about the T/C (dose: 25.0 mg/kg/injection, schedule: Q04DX003 (ip), vehicle: saline) of the same compound?
A: The T/C was 105 % of control.

Q: And the T/C (dose: 50.0 mg/kg/injection, schedule: Q04DX003 (ip), vehicle: saline)?
A: The T/C was 107 % of control.

Q: Which results are given for `CC1=C/C(=N/NC(N)=O)CC(C)C1` (configuration not stated)?
A: T/C (dose: 50.0 mg/kg/injection, schedule: Q04DX003 (ip), vehicle: Klucel (hydroxypropylcellulose) (HPC)): 100 % of control; T/C [1]: 105 % of control; T/C [2]: 100 % of control

Q: For `O=C1OC2=C(Cl)C=CC=CC2C12C1C=CC=CC12` (configuration not stated), which T/C [3] is on record?
A: The T/C was 113 % of control.

Q: And the T/C (dose: 100.0 mg/kg/injection, schedule: Q01DX009 (ip), vehicle: saline with Tween-80)?
A: Its T/C is 110 % of control.

Q: What about the T/C (dose: 200.0 mg/kg/injection, schedule: Q01DX009 (ip), vehicle: saline with Tween-80) of the same compound?
A: The T/C was 107 % of control.

Q: Which results are given for `C=CCN(CC=C)C(=O)CCN1CC1`?
A: T/C (dose: 1.25 mg/kg/injection, schedule: Q01DX009 (ip), vehicle: saline): 95 % of control; T/C (dose: 2.5 mg/kg/injection, schedule: Q01DX009 (ip), vehicle: saline): 100 % of control; T/C (dose: 5.0 mg/kg/injection, schedule: Q01DX009 (ip), vehicle: saline): 112 % of control

Q: Which results are given for `N#CCc1ccc([N+](=O)[O-])cc1`?
A: T/C (dose: 6.25 mg/kg/injection, schedule: Q01DX009 (ip), vehicle: Klucel (hydroxypropylcellulose) (HPC)): 100 % of control; T/C (dose: 12.5 mg/kg/injection, schedule: Q01DX009 (ip), vehicle: Klucel (hydroxypropylcellulose) (HPC)): 91 % of control; T/C (dose: 12.5 mg/kg/injection, schedule: Q04DX003 (ip), vehicle: Klucel (hydroxypropylcellulose) (HPC)): 104 % of control; T/C (dose: 25.0 mg/kg/injection, schedule: Q04DX003 (ip), vehicle: Klucel (hydroxypropylcellulose) (HPC)): 117 % of control

Q: For `CC1=C/C(=N\N=C2/C=C(C)CC(C)(C)C2)CC(C)(C)C1`, which T/C [1] is on record?
A: Its T/C is 104 % of control.

Q: What about the T/C [2] of the same compound?
A: Its T/C is 109 % of control.

Q: What about the T/C (dose: 400.0 mg/kg/injection, schedule: Q04DX003 (ip), vehicle: Klucel (hydroxypropylcellulose) (HPC)) of the same compound?
A: Its T/C is 100 % of control.

Q: What does the source list for `Cc1cccc(C)c1NC(=O)N(CCCl)N=O`?
A: T/C (dose: 0.88 mg/kg/injection, schedule: Q01DX009 (ip), vehicle: saline with Tween-80): 159 % of control; T/C (dose: 1.32 mg/kg/injection, schedule: Q01DX009 (ip), vehicle: saline with Tween-80): 159 % of control; T/C (dose: 2.0 mg/kg/injection, schedule: Q01DX009 (ip), vehicle: saline with Tween-80): 204 % of control; T/C (dose: 3.0 mg/kg/injection, schedule: Q01DX009 (ip), vehicle: saline with Tween-80): 200 % of control; T/C (dose: 12.5 mg/kg/injection, schedule: Q04DX003 (ip), vehicle: saline with Tween-80): 86 % of control; T/C (dose: 25.0 mg/kg/injection, schedule: Q04DX003 (ip), vehicle: saline with Tween-80): 109 % of control

Q: For `O=c1ccc2nccc3c4ccccc4n1c23`, which T/C (dose: 100.0 mg/kg/injection, schedule: Q01DX001 (ip), vehicle: saline sonified) is on record?
A: Its T/C is 100 % of control.

Q: And the T/C (dose: 200.0 mg/kg/injection, schedule: Q01DX001 (ip), vehicle: saline sonified)?
A: The T/C was 100 % of control.

Q: And the T/C (dose: 400.0 mg/kg/injection, schedule: Q01DX001 (ip), vehicle: saline sonified)?
A: Its T/C is 100 % of control.

Q: With `Nc1cc(Nc2cccc(Cl)c2)nc(N)n1` as the compound, how does the T/C [3] read?
A: The T/C was 86 % of control.

Q: What does the source list for `CCCCN(CCCC)C(=O)C1C=C2c3cccc4[nH]cc(c34)CC2N(C)C1` (configuration not stated)?
A: T/C (dose: 50.0 mg/kg/injection, schedule: Q01DX009 (ip), vehicle: water): 105 % of control; T/C (dose: 100.0 mg/kg/injection, schedule: Q01DX009 (ip), vehicle: water): 94 % of control; T/C (dose: 100.0 mg/kg/injection, schedule: Q04DX003 (ip), vehicle: water): 105 % of control; T/C (dose: 200.0 mg/kg/injection, schedule: Q01DX009 (ip), vehicle: water): 114 % of control; T/C (dose: 200.0 mg/kg/injection, schedule: Q04DX003 (ip), vehicle: water): 94 % of control; T/C (dose: 400.0 mg/kg/injection, schedule: Q01DX009 (ip), vehicle: water): 109 % of control; T/C (dose: 400.0 mg/kg/injection, schedule: Q04DX003 (ip), vehicle: water): 97 % of control

Q: For `Cc1ccc(C2=C(Cl)C(=O)NC2=O)s1`, which T/C (dose: 12.5 mg/kg/injection, schedule: Q01DX001 (ip), vehicle: saline with Tween-80) is on record?
A: The T/C was 112 % of control.

Q: `O=C([O][Hg][CH2]C1COC([CH2][Hg][O]C(=O)c2ccccc2)CO1)c1ccccc1` (configuration not stated) was tested. Which T/C [4] did it give?
A: Its T/C is 113 % of control.

Q: What does the source list for `CCCCCCCCCCCC(=O)CCCCC`?
A: T/C (dose: 100.0 mg/kg/injection, schedule: Q04DX003 (ip), vehicle: other): 100 % of control; T/C (dose: 200.0 mg/kg/injection, schedule: Q04DX003 (ip), vehicle: other): 100 % of control; T/C (dose: 400.0 mg/kg/injection, schedule: Q04DX003 (ip), vehicle: other): 104 % of control

Q: With `Cc1ncc([N+](=O)[O-])n1CCOc1c(Br)cc(Br)cc1CN(C)C1CCCCC1` as the compound, how does the T/C [4] read?
A: The T/C was 100 % of control.

Q: And the T/C (dose: 200.0 mg/kg/injection, schedule: Q04DX003 (ip), vehicle: saline with Tween-80)?
A: Its T/C is 105 % of control.

Q: What about the T/C (dose: 400.0 mg/kg/injection, schedule: Q04DX003 (ip), vehicle: saline with Tween-80) of the same compound?
A: Its T/C is 115 % of control.

Q: Which results are given for `C1CN(P2(N3CC3)=NP(N3CC3)(N3CC3)=NP(N3CC3)(N3CC3)=N2)CCO1` (configuration not stated)?
A: T/C (dose: 6.25 mg/kg/injection, schedule: Q01DX009 (ip), vehicle: saline): 167 % of control and 195 % of control; T/C (dose: 12.5 mg/kg/injection, schedule: Q01DX009 (ip), vehicle: saline): 227 % of control and 200 % of control; T/C (dose: 25.0 mg/kg/injection, schedule: Q01DX009 (ip), vehicle: saline): 260 % of control and 155 % of control
